{
  "source": "patent US20250295690A1",
  "about": "“ORAL FORMULATION BASED ON A PRE-ESTABLISHED ASSOCIATION OF SULODEXIDE AND FLAVONOIDS FOR THE TREATMENT OF CHRONIC VENOUS INSUFFICIENCY AND PREVENTION OF COMPLICATIONS THEREOF” (priority 2021, published 2025)",
  "key": {"[1]": {"test_system": "human umbilical vein endothelial cells (HUVEC)", "assay": "In vitro vascular permeability assay on a VEGF-treated HUVEC monolayer (FITC-dextran)", "type": "cell-based", "conditions": "50 ng/ml, 8 hours", "method": "(§1) The direct effect on the vasal permeability of three compositions comprising Sulodexide+flavonoids was evaluated in vitro:\n(§2) All tested compositions (i)-(iii) comprise a concentration of sulodexide equal to 0.25% and a concentration of diosmin, hesperidin or troxerutin, respectively, equal to 4.5% by weight with respect to the total weight of the composition.\n(§3) The action of the compositions (i)-(iii) was compared with the action of the active principles Diosmin, Hesperidin, Troxerutin, 8% by weight, and glucosaminoglycan Sulodexide, 0.5% by weight, administered singularly.\n(§4) The direct effect on the vasal permeability was evaluated by using endothelial cellular cultures miming the continuous mono-layer of the endothelium of the human vessels. Two cellular models were used: the human micro-vascular endothelial cells (HMVEC) to simulate the vessels of the microcirculation, and the human umbilical vein endothelial cells (HUVEC) to study the vasal endothelium. The cells of the lines HMVEC and HUVEC (3×10^5) were incubated for 72 hours at 37° C. on supports of semi-permeable membrane with pores having 1-μm diameter so as to form a continuous mono-layer wholly impermeable to the substance used as control, the fluorescein isothiocyanate (FITC) dextran. The vasal permeability was evaluated with the kit “The Millipore® In Vitro Vascular Permeability Assay”. […]"}, "[2]": {"test_system": "human micro-vascular endothelial cells (HMVEC)", "assay": "In vitro vascular permeability assay on a VEGF-treated HMVEC monolayer (FITC-dextran)", "type": "cell-based", "conditions": "HMVEC line, 50 ng/ml, 8 hours", "method": "as §1, §2, §3, §4"}},
  "data": [
    {"substance": "VEGF", "values": [
      {"measurement": "increase in permeability", "setting": "[1]", "value": 42, "unit": "%"},
      {"measurement": "increase in permeability", "setting": "[2]", "value": 36, "unit": "%"}
    ]}
  ]
}
